According to ChEMBL document CHEMBL1201862, “PubChem BioAssay data set” (2004):
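Briefly, cells in 96-well plates were exposed to five compound concentrations for 48 h, and endpoints were estimated by linear interpolation. GI50 is the concentration that inhibits growth by half.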 The source made the active and inactive calls. Rule as the data show it: active = GI50 up to about 1.1 µM and inactive = higher.

Experiments:
Experiment in all cases: growth of human tumour cells (NCI), 48 h
NCI-H460 = system: NCI-H460
SK-MEL-5 = system: SK-MEL-5
SW-620 = system: SW-620
SK-MEL-28 = system: SK-MEL-28
Malme-3M = system: Malme-3M
COLO 205 = system: COLO 205
EKVX = system: EKVX
OVCAR-4 = system: OVCAR-4
SF-539 = system: SF-539
OVCAR-3 = system: OVCAR-3
U-251 = system: U-251
MCF7 = system: MCF7
T47D = system: T47D
ACHN = system: ACHN
SK-OV-3 = system: SK-OV-3
TK-10 = system: TK-10
OVCAR-5 = system: OVCAR-5
KM12 = system: KM12
786-0 = system: 786-0
SF-295 = system: SF-295
DU-145 = system: DU-145
HOP-92 = system: HOP-92
RPMI-8226 = system: RPMI-8226
K562 = system: K562
M14 = system: M14
UACC-62 = system: UACC-62
SN12C = system: SN12C
HT-29 = system: HT-29
HL-60 = system: HL-60
MOLT-4 = system: MOLT-4
HOP-62 = system: HOP-62
MDA-N = system: MDA-N
NCI-H23 = system: NCI-H23
SNB-19 = system: SNB-19
LOX IMVI = system: LOX IMVI
HCT-15 = system: HCT-15
NCI/ADR-RES = system: NCI/ADR-RES
OVCAR-8 = system: OVCAR-8
PC-3 = system: PC-3
CAKI-1 = system: CAKI-1
HCT-116 = system: HCT-116
MDA-MB-231 = system: MDA-MB-231
UACC-257 = system: UACC-257
BT-549 = system: BT-549
CCRF-CEM = system: CCRF-CEM
SR = system: SR
A549 = system: A549
SF-268 = system: SF-268
MDA-MB-435 = system: MDA-MB-435
NCI-H226 = system: NCI-H226
IGROV-1 = system: IGROV-1
NCI-H522 = system: NCI-H522
Hs-578T = system: Hs-578T
A498 = system: A498
HCC 2998 = system: HCC 2998
RXF 393 = system: RXF 393
UO-31 = system: UO-31
SK-MEL-2 = system: SK-MEL-2

Measured: GI50

Nc1ccccc1OCc1cc(=O)c(OCc2ccccc2)co1
inactive: NCI-H460 7.62 µM | SK-MEL-5 18.8 µM | SW-620 80.7 µM | SK-MEL-28 > 100 µM | Malme-3M 34.6 µM | COLO 205 12.6 µM | EKVX 24.1 µM | OVCAR-4 62.1 µM | SF-539 21.6 µM | OVCAR-3 22.9 µM | U-251 28.4 µM | MCF7 14.7 µM | T47D 24.2 µM | ACHN 8.99 µM | SK-OV-3 23.6 µM | TK-10 18.8 µM | OVCAR-5 37.4 µM | KM12 6.47 µM | 786-0 23.8 µM | SF-295 10.1 µM | DU-145 47.8 µM | RPMI-8226 15 µM | K562 2.75 µM | M14 17.7 µM | HT-29 5.05 µM | HL-60 14.9 µM | MOLT-4 > 100 µM | HOP-62 33 µM | MDA-N 19.1 µM | NCI-H23 39.6 µM | SNB-19 > 100 µM | LOX IMVI 27.7 µM | NCI/ADR-RES 10.2 µM | OVCAR-8 > 100 µM | PC-3 34.4 µM | CAKI-1 8.65 µM | HCT-116 64.7 µM | MDA-MB-231 19.9 µM | UACC-257 14.3 µM | BT-549 33.5 µM | CCRF-CEM > 100 µM | SR > 100 µM | A549 71.1 µM | SF-268 15.9 µM | MDA-MB-435 15.8 µM
active: HOP-92 0.202 µM | UACC-62 0.469 µM | SN12C 0.214 µM
24.2 µM: HCT-15

CC(C)C(=O)[C@@]1(C)SC[C@H]2CCN=C21
> 100 µM: HCT-15
inactive: NCI-H460 > 100 µM | SK-MEL-5 > 100 µM | SW-620 > 100 µM | NCI-H226 > 100 µM | SK-MEL-28 > 100 µM | Malme-3M 46.7 µM | COLO 205 > 100 µM | EKVX > 100 µM | OVCAR-4 74.6 µM | SF-539 > 100 µM | OVCAR-3 > 100 µM | MCF7 > 100 µM | ACHN > 100 µM | IGROV-1 > 100 µM | SK-OV-3 > 100 µM | NCI-H522 52 µM | TK-10 > 100 µM | Hs-578T > 100 µM | OVCAR-5 > 100 µM | A498 34.4 µM | KM12 > 100 µM | 786-0 > 100 µM | SF-295 > 100 µM | DU-145 > 100 µM | HOP-92 16.9 µM | RPMI-8226 > 100 µM | K562 > 100 µM | HCC 2998 > 100 µM | M14 71 µM | UACC-62 41.4 µM | RXF 393 3.52 µM | SN12C > 100 µM | HT-29 > 100 µM | HL-60 > 100 µM | MOLT-4 42.9 µM | MDA-N 34.8 µM | NCI-H23 > 100 µM | SNB-19 > 100 µM | UO-31 58.6 µM | LOX IMVI > 100 µM | NCI/ADR-RES > 100 µM | OVCAR-8 > 100 µM | CAKI-1 17 µM | HCT-116 > 100 µM | UACC-257 > 100 µM | BT-549 > 100 µM | CCRF-CEM > 100 µM | SR 56.8 µM | A549 > 100 µM | MDA-MB-435 25.1 µM

OCC1NC(CO)C(O)C1O (centres undefined)
inactive: SW-620 > 100 µM | OVCAR-4 > 100 µM | OVCAR-3 > 100 µM | U-251 > 100 µM | Hs-578T > 100 µM | OVCAR-5 > 100 µM | RPMI-8226 > 100 µM | RXF 393 > 100 µM | SN12C > 10 µM | SK-MEL-2 > 100 µM | HL-60 > 100 µM | HOP-62 > 100 µM | MDA-N > 100 µM | SNB-19 > 100 µM | PC-3 > 100 µM | UACC-257 > 100 µM | BT-549 > 100 µM | CCRF-CEM > 100 µM | SR > 100 µM
